# Results published in patent US20250161338A1, “Compounds for Anti-aging Intervention” (AGENCY FOR SCIENCE, TECHNOLOGY AND RESEARCH, priority 2022, published 2025).
# Counter-ions that a name gives are not always drawn.
# Columns and labels:
# [1] = tested on: prototrophic yeast strain (CEN.PK113-7D); experiment: Yeast outgrowth in YPD liquid medium (CLS of aged cells); format: cell-based, Saccharomyces cerevisiae; settings: concentration tested 100 μM; OD600 nm after 24 h in YPD at 30° C.; age point day 14
# Experimental: (§1) CLS experiments were performed in 96-well plates with 200 μL yeast culture. Cellular inoculums were transferred into 96-well plates containing serially double-diluted concentrations (0 to 10 nM) of rapamycin. Cellular inoculum was transferred into 96-well plates containing serially double-diluted concentrations (0 to 8 mM) of 2,5-anhydro-D-mannitol, D-fructose, D-mannitol, D-maltose, and D-sorbitol in SD medium. Cells were incubated at 30° C., and the growth was measured at different time points. […] Cell survival was quantified at various age time points by three different approaches: (i) PI fluorescence-based method, (ii) outgrowth in YPD liquid medium, and (iii) spotting assay (FIG. 1).
# Outgrowth (OD600) of aged cells was measured by the microplate reader. Quantification of cell survival for each age point was determined as relative to Day 1 (considered 100% cell survival). This quantification was performed by using the formula,
# [formula] • where OutgrowthDay n refers to the OD600 nm absorbance reading recorded on a specific day, OutgrowthDay 1 refers to the OD600 nm absorbance reading recorded on the first day where 100% cell survival is assumed.
# The CLS of the aged cells was further determined by the yeast outgrowth in YPD liquid medium method as described above. […] At chronological age point day 14, 3-μL of culture were transferred to a second 96-well plate containing 200 μL YPD medium.
# [2] = tested on: prototrophic yeast strain (CEN.PK113-7D); experiment: Propidium iodide fluorescence-based CLS method in yeast (incl. high-throughput screening); format: cell-based, Saccharomyces cerevisiae; settings: concentration tested 100 μM; for Yeast CLS increase: Yes/No call of the screen; for PI intensity: solvent DMSO or water, chronological age point Day 7 (72 h growth = Day 1), lower = more survival;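 as to PI intensity: untreated reference is eight DMSO and water control wells per plate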
# Experimental: Yeast strain was recovered from frozen glycerol stock at 30° C. on YPD agar medium. Yeast was left to propagate in SD medium overnight at 30° C. with shaking at 220 revolutions per minute (rpm). Cells propagated overnight were diluted to a starting optical density at 600 nm (OD600) of approximately 0.2 in fresh SD medium to begin the chronological lifespan (CLS) experiments.
# as §1
# Yeast cells (40 μL) from different age time points were transferred into a second 96-well plate (different to the 96-well plate in which the CLS analysis as outlined above was performed). Cells were washed and incubated in 100 μL 1×phosphate buffered saline (PBS) with propidium iodide (PI) (5 μg/mL) for 15 minutes in the dark. Positive and negative control samples were included for quantitative analysis. Positive control (cells boiled at 100° C. for 15 minutes) was PI-stained and processed in the same 96-well plate. Samples without PI-stained cells served as the negative control. After incubation, cells were washed and resuspended in 100 μL PBS. The fluorescence reading of the samples (excitation and emission wavelengths at 535 nm and 617 nm, respectively) and OD600 were measured with a microplate reader (BioTek, Winooski, Vermont, United States). The fluorescence intensity of each sample was normalized with OD600. The background fluorescence signal of the unstained negative sample was subtracted from the normalized fluorescence intensity of each sample. The obtained fluorescence intensity of the positive control (boiled dead cells) was considered 0% cell survival. Cell death was validated by allowing the boiled dead cells to grow in medium. Cell survival at different age time points of samples were calculated by normalizing the fluorescence intensity with positive control sample (boiled cells).
# High-throughput screening of various chemicals was tested using the same protocol for the propidium iodide fluorescence-based method as described above. The prototrophic yeast strain (CEN.PK113-7D) was grown in the synthetic defined medium with different chemical reagents at their respective single testing concentration (Table 1) in addition to eight replicates of DMSO and water controls in 96-well plates at 30° C.
smiles,measurement,setting,value
"CC1(C)C[C@@H]1C(=O)N/C(=C\CCCCSC[C@H](N)C(=O)O)C(=O)O [Cilastatin, reference compound]",Outgrowth,[1],0.1
same,Yeast CLS increase,[2],No
same,PI intensity,[2],"55,728.9"
O=C(O)C=Cc1ccccc1 [Cinnamic acid],Outgrowth,[1],0.1
same,Yeast CLS increase,[2],No
same,PI intensity,[2],"60,256.3"
COc1cc2oc(-c3ccc(O)cc3)cc(=O)c2c(O)c1OC [Cirsimaritin],Outgrowth,[1],0.1
same,Yeast CLS increase,[2],No
same,PI intensity,[2],"85,017.1"
O=C(/C=C/c1ccc(O)c(O)c1)O[C@H]1[C@H](O)C[C@](O)(C(=O)O)C[C@H]1O [Cryptochlorogenic acid],Outgrowth,[1],0.1
same,Yeast CLS increase,[2],No
same,PI intensity,[2],"65,040.0"
OC[C@H]1O[C@@H](Oc2cc3c(O)cc(O)cc3[o+]c2-c2ccc(O)c(O)c2)[C@H](O)[C@@H](O)[C@H]1O.[Cl-] [Cyanidin-3-O-galactoside (chloride)],Outgrowth,[1],0.1
same,Yeast CLS increase,[2],No
same,PI intensity,[2],"63,761.1"
OC[C@H]1O[C@@H](O[C@H]2[C@H](O)[C@@H](O)[C@H](O)O[C@@H]2CO)[C@H](O)[C@@H](O)[C@@H]1O [D-(+)-Cellobiose],Outgrowth,[1],0.1
same,Yeast CLS increase,[2],No
same,PI intensity,[2],"69,857.4"
O=C[C@H](O)[C@@H](O)[C@H](O)[C@H](O)C(=O)O [D-Glucuronic acid],Outgrowth,[1],0.1
same,Yeast CLS increase,[2],No
same,PI intensity,[2],"48,839.6"
C[C@@H]1CC[C@@]2(OC1)O[C@H]1C[C@H]3[C@@H]4CC=C5C[C@@H](O[C@@H]6O[C@H](CO)[C@@H](O[C@@H]7O[C@H](CO)[C@@H](O)[C@H](O)[C@H]7O)[C@H](O)[C@H]6O[C@@H]6O[C@@H](C)[C@H](O)[C@@H](O)[C@H]6O)CC[C@]5(C)[C@H]4CC[C@]3(C)[C@H]1[C@@H]2C [Deltonin],Outgrowth,[1],0.1
same,Yeast CLS increase,[2],No
same,PI intensity,[2],"62,357.6"
"O=C(O)Cc1ccccc1Nc1c(Cl)cccc1Cl [Diclofenac (Sodium), reference compound]",Outgrowth,[1],0.2
same,Yeast CLS increase,[2],No
same,PI intensity,[2],"79,704.3"
"CC(=O)OCC(=O)[C@@]1(OC(C)=O)[C@@H](C)C[C@H]2[C@@H]3C[C@H](F)C4=CC(=O)C=C[C@]4(C)[C@@]3(F)[C@@H](O)C[C@@]21C [Diflorasone, reference compound]",Outgrowth,[1],0.1
same,Yeast CLS increase,[2],No
same,PI intensity,[2],"71,051.3"
"COS(=O)(=O)[O-].C[N+]1(C)CCC(=C(c2ccccc2)c2ccccc2)CC1 [Diphenmanil (methylsulfate), reference compound]",Outgrowth,[1],0.1
same,Yeast CLS increase,[2],No
same,PI intensity,[2],"78,623.4"
CC1(C)[C@@H](O[C@H]2O[C@H](C(=O)[O-])[C@@H](O)[C@H](O)[C@H]2O[C@@H]2O[C@H](C(=O)[O-])[C@@H](O)[C@H](O)[C@H]2O)CC[C@]2(C)[C@H]3C(=O)C=C4[C@@H]5C[C@@](C)(C(=O)O)CC[C@]5(C)CC[C@@]4(C)[C@]3(C)CC[C@@H]12.[K+].[K+] [Dipotassium glycyrrhizinate],Outgrowth,[1],0.1
same,Yeast CLS increase,[2],No
same,PI intensity,[2],"68,519.8"
"C[C@@H](O)[C@H]1C(=O)N2C(C(=O)O)=C(S[C@@H]3CN[C@H](CNS(N)(=O)=O)C3)[C@H](C)[C@H]12 [Doripenem (monohydrate), reference compound]",Outgrowth,[1],0.1
same,Yeast CLS increase,[2],No
same,PI intensity,[2],"69,608.7"
"CC[C@H]1CN2CCc3cc(OC)c(OC)cc3[C@@H]2C[C@@H]1C[C@H]1NCCc2cc(OC)c(OC)cc21 [Emetine (dihydrochloride hydrate), reference compound]",Outgrowth,[1],0.1
same,Yeast CLS increase,[2],No
same,PI intensity,[2],"75,341.5"
CC1OC(OC2C(=O)c3c(O)cc(O)cc3OC2c2ccc(O)cc2)C(O)C(O)C1O (centres unmarked) [Engeletin],Outgrowth,[1],0.9
same,Yeast CLS increase,[2],Yes
same,PI intensity,[2],"37,144.4"
COc1cc2c(cc1OC)-c1cc3ccc4c(c3c[n+]1CC2)OCO4.[Cl-] [Epiberberine (chloride)],Outgrowth,[1],1.3
same,Yeast CLS increase,[2],Yes
same,PI intensity,[2],"38,027.2"
O=c1ccc2cc(O[C@@H]3O[C@H](CO)[C@@H](O)[C@H](O)[C@H]3O)c(O)cc2o1 [Esculin],Outgrowth,[1],0.1
same,Yeast CLS increase,[2],No
same,PI intensity,[2],"72,890.7"
CCOC(=O)c1ccc(O)cc1 [Ethylparaben],Outgrowth,[1],0.1
same,Yeast CLS increase,[2],No
same,PI intensity,[2],"52,097.7"
C=C1[C@H](OC(=O)c2ccccc2)C[C@H]2[C@@H](/C=C(\C)C(=O)[C@@]3(OC(C)=O)C[C@H](C)[C@H](OC(=O)c4ccccc4)[C@@H]3[C@H]1OC(C)=O)C2(C)C [Euphorbia Factor L2],Outgrowth,[1],0.1
same,Yeast CLS increase,[2],No
same,PI intensity,[2],"68,871.8"
Cc1cc2nc3c(=O)[nH]c(=O)nc-3n(C[C@H](O)[C@H](O)[C@H](O)COP(=O)(O)OP(=O)(O)OC[C@H]3O[C@@H](n4cnc5c(N)ncnc54)[C@H](O)[C@@H]3O)c2cc1C [Flavin adenine dinucleotide (disodium salt)],Outgrowth,[1],0.2
same,Yeast CLS increase,[2],No
same,PI intensity,[2],"59,508.7"
NC=O [Formamide],Outgrowth,[1],0.1
same,Yeast CLS increase,[2],No
same,PI intensity,[2],"64,135.2"
"O=C1NC(c2ccccc2)(c2ccccc2)C(=O)N1COP(=O)(O)O [Fosphenytoin (disodium), reference compound]",Outgrowth,[1],0.1
same,Yeast CLS increase,[2],No
same,PI intensity,[2],"61,860.0"
COC(=O)C1=CO[C@@H](O[C@@H]2O[C@H](CO)[C@@H](O)[C@H](O)[C@H]2O)[C@H]2[C@@H]1C=C[C@@]2(O)CO [Gardenoside],Outgrowth,[1],0.1
same,Yeast CLS increase,[2],No
same,PI intensity,[2],"65,525.5"
C=C[C@@H]1C2=CCOC(=O)C2=CO[C@H]1O[C@@H]1O[C@H](CO)[C@@H](O)[C@H](O)[C@H]1O [Gentiopicroside],Outgrowth,[1],0.1
same,Yeast CLS increase,[2],No
same,PI intensity,[2],"59,804.7"
CC(C)=CCC/C(C)=C/CO [Geraniol],Outgrowth,[1],0.1
same,Yeast CLS increase,[2],No
same,PI intensity,[2],"76,340.1"
Cl.N[C@H]1C(O)O[C@H](CO)[C@@H](O)[C@@H]1O (some centres unmarked) [Glucosamine (hydrochloride)],Outgrowth,[1],0.1
same,Yeast CLS increase,[2],No
same,PI intensity,[2],"65,905.5"
CC(CCC(=O)NCC(=O)O)C1CCC2C3CCC4CC(O)CCC4(C)C3CC(O)C12C (centres unmarked) [Glycodeoxycholic acid (monohydrate)],Outgrowth,[1],0.1
same,Yeast CLS increase,[2],No
same,PI intensity,[2]; (monohydrate),"73,459.3"
C[C@H](CCC(=O)NCC(=O)O)[C@H]1CC[C@H]2[C@@H]3[C@@H](O)C[C@@H]4C[C@H](O)CC[C@]4(C)[C@H]3CC[C@]12C [Glycoursodeoxycholic acid],Outgrowth,[1],0.1
same,Yeast CLS increase,[2],No
same,PI intensity,[2],"64,205.2"
Cc1cc2c(C(C)C)c(O)c(O)c(C=O)c2c(O)c1-c1c(C)cc2c(C(C)C)c(O)c(O)c(C=O)c2c1O [Gossypol],Outgrowth,[1],0.1
same,PI intensity,[2],"65,220.1"
Cc1ccc(C(C)C)cc2c(C)ccc1-2 [Guaiazulene],Outgrowth,[1],0.1
same,Yeast CLS increase,[2],No
same,PI intensity,[2],"58,776.1"
C/C=C1\C(=O)C[C@H]2[C@@H]3CCC4=CC(=O)CC[C@]4(C)[C@H]3CC[C@]12C [Guggulsterone],Outgrowth,[1],0.1
same,Yeast CLS increase,[2],No
same,PI intensity,[2],"63,881.9"
